Source: US9144239B2, “Macrocyclic picolinamides as fungicides” (DOW AGROSCIENCES LLC, priority 2012, dated 2015)
Where two headings read alike, the source gives them in different places.

Legend:
[1] = test system: Mycosphaerella graminicola; anamorph: Septoria tritici; assay: Fungicidal activity: leaf blotch of wheat (SEPTTR), wheat seedlings; format: in vivo; conditions: Zymoseptoria tritici
Outline: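 Percent control derives from disease severity on treated versus untreated first leaves, rated 0–100% when symptoms were fully expressed on untreated plants. Yuma seedlings were inoculated with S. tritici spores either before or after spraying to run-off. The spray was acetone solution diluted 1:9 in water with 110 ppm Triton X-100. Infection took place in 100% RH dew chambers, then a 20 °C greenhouse.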

[2] = test system: Puccinia triticina; synonym: Puccinia recondita f. sp. tritici; assay: Fungicidal activity: wheat brown rust (PUCCRT), wheat seedlings; format: in vivo
Outline: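 Wheat (Yuma) seedlings at first-leaf stage, inoculated with Puccinia triticina spores before or after treatment, held overnight in dark dew room at 22° C, 100% RH, then greenhouse at 24° C. Acetone solutions diluted with nine volumes water containing 110 ppm Triton X-100, sprayed to run-off. Percent disease control derived from severity (0–100%) relative to untreated plants.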

[3] = test system: Puccinia triticina; synonym: Puccinia recondita f. sp. tritici; assay: Fungicide mobility (dropline mobility test): wheat brown rust (PUCCRT); format: in vivo; conditions: 1 ug/leaf
Protocol: Evaluation of Fungicide Mobility: Wheat Brown Rust (Puccinia triticina; Synonym: Puccinia recondita f. sp. tritici; Bayer Code PUCCRT) “Yuma” wheat seedlings were used in the test. One mg of compound was dissolved in 9 μl of EC blank (emulsifiable concentrate) and 500 μl of acetone. Acetone was then evaporated overnight by leaving the vial open in a fume hood. Two milliliters of water containing 110 ppm Triton X-100 was added to each vial to prepare application solutions. A 2 μl drop of formulated material was applied to a marked line on the adaxial surface 5 cm from the leaf tip of the primary leaves. The primary leaves were kept in a horizontal position. Each treatment had 6 replicates. Plants were inoculated with PUCCRT 1-day after (1DPM) or 3-day prior to (3DCM) compound applications. When rust was fully expressed on primary leaves on control plants, the zone of treated leaves that was disease-free in the acropetal direction was measured with a ruler and converted to percent of the distance from marked line to leaf tip.

[4] = 24 h, 100 ppm, 1 Day Protectant, wheat, read-out: Disease Control SEPTTR 1DP
[5] = 72 h, 100 ppm, 3 Day Curative, wheat, read-out: Disease Control SEPTTR 3DC
[6] = 24 h, 100 ppm, 1 Day Protectant, wheat, read-out: Disease Control PUCCRT 1DP
[7] = 72 h, 100 ppm, 3 Day Curative, wheat, read-out: Disease Control PUCCRT 3DC
[8] = 24 h, 1 Day Protectant Mobility, read-out: Dropline Mobility Test PUCCRT 1DPM
[9] = 72 h, 3 Day Curative Mobility, read-out: Dropline Mobility Test PUCCRT 3DCM
[10] = 24 h, read-out: Disease Control SEPTTR 1DP
[11] = 72 h, read-out: Disease Control SEPTTR 3DC
[12] = 24 h, read-out: Disease Control PUCCRT 1DP
[13] = 72 h, read-out: Disease Control PUCCRT 3DC

Compound | pest or weed control at 100 ppm [1, 4] [%] | pest or weed control at 100 ppm [1, 5] [%] | pest or weed control at 100 ppm [2, 6] [%] | pest or weed control at 100 ppm [2, 7] [%] | pest or weed control at 1 µg/leaf [3, 8] [%] | pest or weed control at 1 µg/leaf [3, 9] [%] | melting point [°C] | pest or weed control at 100 ppm [1, 10] [%] | pest or weed control at 100 ppm [1, 11] [%] | pest or weed control at 100 ppm [2, 12] [%] | pest or weed control at 100 ppm [2, 13] [%]
COc1ccnc(C(=O)N[C@H]2COC[C@H](OCC(C)C)[C@@H](OCC(C)C)[C@H](C)OC2=O)c1O [Compound 1, N-((3S,7S,8S,9S)-7,8-diisobutoxy-9-methyl-2-oxo-1,5-dioxonan-3-yl)-3-hydroxy-4-methoxypicolinamide] | 80 to 100 | 80 to 100 | 80 to 100 | 80 to 100 | 80 to 100 | 80 to 100 | 111 to 113 |  |  |  | 
CCC(C)(C)O[C@H]1COC[C@H](NC(=O)c2nccc(OC)c2O)C(=O)O[C@@H](C)[C@@H]1OCC(C)C [Compound 71, 3-hydroxy-N-((3S,7S,8S,9S)-8-isobutoxy-9-methyl-2-oxo-7-(tert-pentyloxy)-1,5-dioxonan-3-yl)-4-methoxypicolinamide] | 80 to 100 | 0 to 80 | 80 to 100 | 0 to 80 |  |  | 138 to 140 |  |  |  | 
CCCCO[C@H]1COC[C@H](NC(=O)c2nccc(OC)c2O)C(=O)O[C@@H](C)[C@@H]1OC [Compound 36, N-((3S,7S,8S,9S)-7-butoxy-8-methoxy-9-methyl-2-oxo-1,5-dioxonan-3-yl)-3-hydroxy-4-methoxypicolinamide] | 0 to 80 | 0 to 80 | 80 to 100 | 80 to 100 |  |  | 118 to 120 |  |  |  | 
COc1ccnc(C(=O)N[C@H]2COC[C@H](OCC(C)C)[C@@H](Oc3ccccc3)[C@H](C)OC2=O)c1O [Compound 82, 3-hydroxy-N-((3S,7S,8S,9S)-7-isobutoxy-9-methyl-2-oxo-8-phenoxy-1,5-dioxonan-3-yl)-4-methoxypicolinamide] |  |  |  |  | 80 to 100 | 0 to 80 | 117 to 119 | 80 to 100 | 0 to 80 | 80 to 100 | 80 to 100
CCCCO[C@H]1COC[C@H](NC(=O)c2nccc(OC)c2O)C(=O)O[C@@H](C)[C@@H]1OCCOC [Compound 52, N-((3S,7S,8S,9S)-7-butoxy-8-(2-methoxyethoxy)-9-methyl-2-oxo-1,5-dioxonan-3-yl)-3-hydroxy-4-methoxypicolinamide] |  |  |  |  |  |  | 75 to 77 | 0 to 80 | 0 to 80 |  | 80 to 100
COc1ccnc(C(=O)N[C@H]2COC[C@H](OCC3CC3)[C@@H](OCC3CC3)[C@H](C)OC2=O)c1OC(C)=O [Compound 232] | 80 to 100 | 0 to 80 | 80 to 100 | 80 to 100 |  |  | 54 to 60 |  |  |  | 
COc1ccnc(C(=O)N[C@H]2COC[C@H](OCC3CC3)[C@@H](OCC3CC3)[C@H](C)OC2=O)c1O [Compound 209] |  | 0 to 80 | 0 to 80 | 0 to 80 |  |  | 114 to 117 |  |  |  | 
COc1ccnc(C(=O)N[C@@H]2COC[C@H](OCC(C)C)[C@@H](OCC(C)C)COC2=O)c1O [Compound 10] | 0 to 80 | 0 to 80 | 0 to 80 | 0 to 80 |  |  | 92 to 97 |  |  |  | 
CCCCO[C@H]1COC[C@H](NC(=O)c2nccc(OC)c2O)C(=O)O[C@@H](C)[C@@H]1OCc1ccccc1 [Compound 33, N-((3S,7S,8S,9S)-8-(benzyloxy)-7-butoxy-9-methyl-2-oxo-1,5-dioxonan-3-yl)-3-hydroxy-4-methoxypicolinamide] |  |  |  |  |  |  | 117 to 119 | 80 to 100 | 0 to 80 | 80 to 100 | 80 to 100
COc1ccnc(C(=O)N[C@H]2COC[C@H](OCC(C)C)[C@@H](OCC(C)C)COC2=O)c1OCOC(C)=O [Compound 13] | 80 to 100 |  | 80 to 100 | 80 to 100 |  |  | 58 to 64 |  |  |  | 
CCCCO[C@H]1COC[C@H](NC(=O)c2nccc(OC)c2O)C(=O)O[C@@H](C)[C@@H]1OCC(C)(C)Cl [Compound 87, N-((3S,7S,8S,9S)-7-butoxy-8-(2-chloro-2-methylpropoxy)-9-methyl-2-oxo-1,5-dioxonan-3-yl)-3-hydroxy-4-methoxypicolinamide] |  |  |  |  | 0 to 80 | 80 to 100 | 115 to 117 |  |  |  | 
COc1ccnc(C(=O)N[C@H]2COC[C@H](OC)[C@@H](OC)[C@H](C)OC2=O)c1O [Compound 63, N-((3S,7S,8S,9S)-7,8-dimethoxy-9-methyl-2-oxo-1,5-dioxonan-3-yl)-3-hydroxy-4-methoxypicolinamide] |  | 0 to 80 |  |  | 0 to 80 |  | 165 to 167 |  |  |  | 
CCCCO[C@H]1[C@H](C)OC(=O)[C@@H](NC(=O)c2nccc(OC)c2O)COC[C@@H]1OCc1ccccc1 [Compound 32, N-((3S,7S,8S,9S)-7-(benzyloxy)-8-butoxy-9-methyl-2-oxo-1,5-dioxonan-3-yl)-3-hydroxy-4-methoxypicolinamide] | 80 to 100 | 0 to 80 | 80 to 100 | 80 to 100 |  |  | 105 to 107 |  |  |  | 
COc1ccnc(C(=O)N[C@H]2COC[C@H](OC(=O)C(C)C)[C@@H](OC(=O)C(C)C)[C@H](C)OC2=O)c1O [Compound 56, (3S,7S,8S,9S)-3-(3-hydroxy-4-methoxypicolinamido)-9-methyl-2-oxo-1,5-dioxonane-7,8-diyl bis(2-methylpropanoate)] |  |  |  |  |  |  | 111 to 113 | 0 to 80 | 80 to 100 | 80 to 100 | 80 to 100
CCCCO[C@H]1COC[C@H](NC(=O)c2nccc(OC)c2O)C(=O)O[C@@H](C)[C@@H]1OCCC [Compound 44, N-((3S,7S,8S,9S)-7-butoxy-9-methyl-2-oxo-8-propoxy-1,5-dioxonan-3-yl)-3-hydroxy-4-methoxypicolinamide] | 80 to 100 | 80 to 100 | 80 to 100 | 80 to 100 |  |  | 110 to 112 |  |  |  | 
C=CCO[C@H]1[C@H](C)OC(=O)[C@@H](NC(=O)c2nccc(OC)c2O)COC[C@@H]1OCCCC [Compound 43, N-((3S,7S,8S,9S)-8-(allyloxy)-7-butoxy-9-methyl-2-oxo-1,5-dioxonan-3-yl)-3-hydroxy-4-methoxypicolinamide] | 80 to 100 | 0 to 80 | 80 to 100 | 80 to 100 |  |  | 101 to 103 |  |  |  | 
CCCCO[C@H]1COC[C@H](NC(=O)c2nccc(OC)c2O)C(=O)O[C@@H](C)[C@@H]1OCC(F)F [Compound 53, N-((3S,7S,8S,9S)-7-butoxy-8-(2,2-difluoroethoxy)-9-methyl-2-oxo-1,5-dioxonan-3-yl)-3-hydroxy-4-methoxypicolinamide] |  |  |  |  |  |  | 127 to 129 | 0 to 80 | 0 to 80 | 80 to 100 | 80 to 100
CC[C@@H]1OC(=O)[C@@H](NC(=O)c2nccc(OC)c2O)COC[C@H](OCC(C)C)[C@H]1OCC(C)C [Compound 21, N-((3S,7S,8S,9S)-9-ethyl-7,8-diisobutoxy-2-oxo-1,5-dioxonan-3-yl)-3-hydroxy-4-methoxypicolinamide] | 80 to 100 | 0 to 80 | 80 to 100 | 80 to 100 |  |  | 119 to 121 |  |  |  | 
CCCCO[C@H]1COC[C@H](NC(=O)c2nccc(OC)c2O)C(=O)O[C@@H](C)[C@@H]1OCC(C)C [Compound 48, N-((3S,7S,8S,9S)-7-butoxy-8-isobutoxy-9-methyl-2-oxo-1,5-dioxonan-3-yl)-3-hydroxy-4-methoxypicolinamide] | 80 to 100 | 80 to 100 | 80 to 100 | 80 to 100 |  |  | 104 to 106 |  |  |  | 
